Reference: ChEMBL document CHEMBL3603774, “Novel 5-functionalized-pyrazoles: Synthesis, characterization and pharmacological screening” (Bioorg Med Chem Lett, 2015)
≈ marks a conversion by molar mass, not a printed value.

Key:
[1] = tested on: Bacillus cereus; test: Antibacterial activity against Bacillus cereus MTCC 8372 at 50 ug/ml after 24 hrs by disc diffusion method; format: functional; details: MTCC 8372, 24 h, read-out: IZ
[2] = tested on: Bacillus cereus; test: Antibacterial activity against Bacillus cereus MTCC 8372 at 100 ug/ml after 24 hrs by disc diffusion method; format: functional; details: MTCC 8372, 24 h, read-out: IZ
[3] = tested on: Staphylococcus aureus; test: Antibacterial activity against Staphylococcus aureus MTCC 96 at 50 ug/ml after 24 hrs by disc diffusion method; format: functional; details: MTCC 96, 24 h, read-out: IZ
[4] = tested on: Staphylococcus aureus; test: Antibacterial activity against Staphylococcus aureus MTCC 96 at 100 ug/ml after 24 hrs by disc diffusion method; format: functional; details: MTCC 96, 24 h, read-out: IZ
[5] = tested on: Escherichia coli; test: Antibacterial activity against Escherichia coli MTCC 724 at 50 ug/ml after 24 hrs by disc diffusion method; format: functional; details: MTCC 724, 24 h, read-out: IZ
[6] = tested on: Escherichia coli; test: Antibacterial activity against Escherichia coli MTCC 724 at 100 ug/ml after 24 hrs by disc diffusion method; format: functional; details: MTCC 724, 24 h, read-out: IZ
[7] = tested on: Klebsiella pneumoniae; test: Antibacterial activity against Klebsiella pneumoniae MTCC 3384 at 50 ug/ml after 24 hrs by disc diffusion method; format: functional; details: MTCC 3384, 24 h, read-out: IZ
[8] = tested on: Klebsiella pneumoniae; test: Antibacterial activity against Klebsiella pneumoniae MTCC 3384 at 100 ug/ml after 24 hrs by disc diffusion method; format: functional; details: MTCC 3384, 24 h, read-out: IZ
[9] = tested on: Aspergillus flavus; test: Antifungal activity against Aspergillus flavus MTCC 873 at 50 ug/ml after 24 hrs by disc diffusion method; format: functional; details: MTCC 873, 24 h, read-out: IZ
[10] = tested on: Aspergillus flavus; test: Antifungal activity against Aspergillus flavus MTCC 873 at 100 ug/ml after 24 hrs by disc diffusion method; format: functional; details: MTCC 873, 24 h, read-out: IZ
[11] = tested on: Aspergillus niger; test: Antifungal activity against Aspergillus niger MTCC 281 at 50 ug/ml after 24 hrs by disc diffusion method; format: functional; details: MTCC 281, 24 h, read-out: IZ
[12] = tested on: Bacillus cereus; test: Antibacterial activity against Bacillus cereus MTCC 8372 after 24 hrs by microdilution method; format: functional; details: MTCC 8372, 24 h
[13] = tested on: Bacillus cereus; test: Antibacterial activity against Bacillus cereus MTCC 8372 assessed as concentration required to completely destroy test microorganisms after 24 hrs; format: functional; details: MTCC 8372, 24 h
[14] = tested on: Staphylococcus aureus; test: Antibacterial activity against Staphylococcus aureus MTCC 96 after 24 hrs by microdilution method; format: functional; details: MTCC 96, 24 h
[15] = tested on: Staphylococcus aureus; test: Antibacterial activity against Staphylococcus aureus MTCC 96 assessed as concentration required to completely destroy test microorganisms after 24 hrs; format: functional; details: MTCC 96, 24 h
[16] = tested on: Escherichia coli; test: Antibacterial activity against Escherichia coli MTCC 724 after 24 hrs by microdilution method; format: functional; details: MTCC 724, 24 h
[17] = tested on: Escherichia coli; test: Antibacterial activity against Escherichia coli MTCC 724 assessed as concentration required to completely destroy test microorganisms after 24 hrs; format: functional; details: MTCC 724, 24 h
[18] = tested on: Klebsiella pneumoniae; test: Antibacterial activity against Klebsiella pneumoniae MTCC 3384 after 24 hrs by microdilution method; format: functional; details: MTCC 3384, 24 h
[19] = tested on: Klebsiella pneumoniae; test: Antibacterial activity against Klebsiella pneumoniae MTCC 3384 assessed as concentration required to completely destroy test microorganisms after 24 hrs; format: functional; details: MTCC 3384, 24 h
[20] = tested on: Aspergillus flavus; test: Antifungal activity against Aspergillus flavus MTCC 873 after 48 hrs by microdilution method; format: functional; details: MTCC 873, 48 h
[21] = tested on: Aspergillus flavus; test: Antifungal activity against Aspergillus flavus MTCC 873 assessed as concentration required to completely destroy test microorganisms after 24 hrs; format: functional; details: MTCC 873, 24 h
[22] = tested on: Aspergillus niger; test: Antifungal activity against Aspergillus niger MTCC 281 after 48 hrs by microdilution method; format: functional; details: MTCC 281, 48 h
[23] = tested on: Aspergillus niger; test: Antifungal activity against Aspergillus niger MTCC 281 assessed as concentration required to completely destroy test microorganisms after 24 hrs; format: functional; details: MTCC 281, 24 h
[24] = tested on: Aspergillus niger; test: Antifungal activity against Aspergillus niger MTCC 281 at 100 ug/ml after 24 hrs by disc diffusion method; format: functional; details: MTCC 281, 24 h, read-out: IZ
[25] = target: T1, Alpha amylase (Homo sapiens, UniProt P0DUB6); test: Inhibition of alpha-amylase (unknown origin) using starch as substrate after 30 mins by spectrophotometer analysis
T1 sequence (P0DUB6 whole entry): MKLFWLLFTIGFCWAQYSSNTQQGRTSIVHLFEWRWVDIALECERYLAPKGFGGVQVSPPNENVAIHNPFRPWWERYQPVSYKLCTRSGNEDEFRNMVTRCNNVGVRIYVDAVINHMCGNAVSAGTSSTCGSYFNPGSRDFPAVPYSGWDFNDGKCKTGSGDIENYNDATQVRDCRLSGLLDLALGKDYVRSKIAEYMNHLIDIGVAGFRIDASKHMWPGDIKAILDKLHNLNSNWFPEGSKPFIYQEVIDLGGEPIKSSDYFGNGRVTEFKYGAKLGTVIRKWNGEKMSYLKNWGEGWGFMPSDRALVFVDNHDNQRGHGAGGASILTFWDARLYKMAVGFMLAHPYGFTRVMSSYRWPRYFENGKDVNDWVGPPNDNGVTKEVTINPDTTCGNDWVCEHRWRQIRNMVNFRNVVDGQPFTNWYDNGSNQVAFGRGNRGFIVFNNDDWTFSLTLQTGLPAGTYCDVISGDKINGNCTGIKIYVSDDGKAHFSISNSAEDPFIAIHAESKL

[26] = Inhibition of alpha-glucosidase (unknown origin) using p-nitrophenol glycoside as substrate after 30 mins by colorimetric analysis; parameters: species or system Homo sapiens

| Structure (SMILES) | zone of inhibition at 50 µg/mL [1] [mm] | zone of inhibition at 100 µg/mL [2] [mm] | zone of inhibition at 50 µg/mL [3] [mm] | zone of inhibition at 100 µg/mL [4] [mm] | zone of inhibition at 50 µg/mL [5] [mm] | zone of inhibition at 100 µg/mL [6] [mm] | zone of inhibition at 50 µg/mL [7] [mm] | zone of inhibition at 100 µg/mL [8] [mm] | zone of inhibition at 50 µg/mL [9] [mm] | zone of inhibition at 100 µg/mL [10] [mm] | zone of inhibition at 50 µg/mL [11] [mm] | MIC [12] [µg/mL] | MBC [13] [µg/mL] | MIC [14] [µg/mL] | MBC [15] [µg/mL] | MIC [16] [µg/mL] | MBC [17] [µg/mL] | MIC [18] [µg/mL] | MBC [19] [µg/mL] | MIC [20] [µg/mL] | also measured |
| --- | --- | --- | --- | --- | --- | --- | --- | --- | --- | --- | --- | --- | --- | --- | --- | --- | --- | --- | --- | --- | --- |
| CCOC(=O)c1c(-c2ccccc2)nn(-c2ccccc2)c1COc1cc(OC)c(C=O)c(OC)c1 | 6 | 10 | 8 | 10 | 15 | 30 | 10 | 19 | 10 | 12 | 14 | 40 (≈ 82.2 µM) | 200 (≈ 411 µM) | 40 (≈ 82.2 µM) | 200 (≈ 411 µM) | 25 (≈ 51.4 µM) | 160 (≈ 329 µM) | 20 (≈ 41.1 µM) | 150 (≈ 308 µM) | 50 (≈ 103 µM) | MFC [21]: 215 µg/mL (≈ 442 µM); MIC [22]: 45 µg/mL (≈ 92.5 µM); MFC [23]: 190 µg/mL (≈ 391 µM); zone of inhibition at 100 µg/mL [24]: 11 mm; IC50 [25]: 40 µg/mL (≈ 82.2 µM); IC50 [26]: 35 µg/mL (≈ 71.9 µM) |
| CCOC(=O)c1c(-c2ccccc2)nn(-c2ccccc2)c1COCc1ccccc1 | 2 | 8 | 2 | 6 | 4 | 6 | 3 | 6 | 8 | 10 | 12 | 50 (≈ 121 µM) | 255 (≈ 618 µM) | 40 (≈ 97 µM) | 210 (≈ 509 µM) | 45 (≈ 109 µM) | 210 (≈ 509 µM) | 45 (≈ 109 µM) | 230 (≈ 558 µM) | 55 (≈ 133 µM) | MFC [21]: 270 µg/mL (≈ 655 µM); MIC [22]: 45 µg/mL (≈ 109 µM); MFC [23]: 265 µg/mL (≈ 642 µM); zone of inhibition at 100 µg/mL [24]: 8 mm; IC50 [25]: 45 µg/mL (≈ 109 µM); IC50 [26]: 45 µg/mL (≈ 109 µM) |
| CCOC(=O)c1c(-c2ccccc2)nn(-c2ccccc2)c1Cn1c(S)nc2ccccc21 | 8 | 11 | 8 | 12 | 8 | 16 | 8 | 14 | 14 | 18 | 10 | 20 (≈ 44 µM) | 160 (≈ 352 µM) | 20 (≈ 44 µM) | 150 (≈ 330 µM) | 25 (≈ 55 µM) | 175 (≈ 385 µM) | 25 (≈ 55 µM) | 160 (≈ 352 µM) | 50 (≈ 110 µM) | MFC [21]: 290 µg/mL (≈ 638 µM); MIC [22]: 40 µg/mL (≈ 88 µM); MFC [23]: 290 µg/mL (≈ 638 µM); zone of inhibition at 100 µg/mL [24]: 16 mm; IC50 [25]: 40 µg/mL (≈ 88 µM); IC50 [26]: 45 µg/mL (≈ 99 µM) |
| CCOC(=O)c1c(-c2ccccc2)nn(-c2ccccc2)c1Cn1cnc2cc(C)ccc21 | 8 | 11 | 6 | 12 | 8 | 12 | 9 | 11 | 16 | 21 | 12 | 50 (≈ 115 µM) | 220 (≈ 504 µM) | 45 (≈ 103 µM) | 205 (≈ 470 µM) | 40 (≈ 91.6 µM) | 205 (≈ 470 µM) | 45 (≈ 103 µM) | 240 (≈ 550 µM) | 40 (≈ 91.6 µM) | MFC [21]: 270 µg/mL (≈ 619 µM); MIC [22]: 45 µg/mL (≈ 103 µM); MFC [23]: 165 µg/mL (≈ 378 µM); zone of inhibition at 100 µg/mL [24]: 24 mm; IC50 [25]: 45 µg/mL (≈ 103 µM); IC50 [26]: 45 µg/mL (≈ 103 µM) |
| CCOC(=O)c1c(-c2ccccc2)nn(-c2ccccc2)c1Cn1cnc2ccccc21 | 6 | 12 | 6 | 12 | 8 | 10 | 6 | 10 | 12 | 15 | 25 | 60 (≈ 142 µM) | 285 (≈ 675 µM) | 55 (≈ 130 µM) | 290 (≈ 686 µM) | 55 (≈ 130 µM) | 270 (≈ 639 µM) | 40 (≈ 94.7 µM) | 220 (≈ 521 µM) | 45 (≈ 107 µM) | MFC [21]: 275 µg/mL (≈ 651 µM); MIC [22]: 50 µg/mL (≈ 118 µM); MFC [23]: 280 µg/mL (≈ 663 µM); zone of inhibition at 100 µg/mL [24]: 20 mm; IC50 [25]: 35 µg/mL (≈ 82.8 µM); IC50 [26]: 30 µg/mL (≈ 71 µM) |
| CCOC(=O)c1c(-c2ccccc2)nn(-c2ccccc2)c1Cn1c(S)nc2ccc(OC(F)F)cc21 | 11 | 26 | 12 | 21 | 20 | 33 | 16 | 28 | 18 | 20 | 12 | 10 (≈ 19.2 µM) | 130 (≈ 250 µM) | 20 (≈ 38.4 µM) | 120 (≈ 231 µM) | 15 (≈ 28.8 µM) | 135 (≈ 259 µM) | 15 (≈ 28.8 µM) | 130 (≈ 250 µM) | 30 (≈ 57.6 µM) | MFC [21]: 155 µg/mL (≈ 298 µM); MIC [22]: 25 µg/mL (≈ 48 µM); MFC [23]: 145 µg/mL (≈ 279 µM); zone of inhibition at 100 µg/mL [24]: 22 mm; IC50 [25]: 10 µg/mL (≈ 19.2 µM); IC50 [26]: 15 µg/mL (≈ 28.8 µM) |
